# Results taken from patent US20180078615A1, “USE OF CCL2 TO INHIBIT ABNORMAL UTERINE BLEEDING” (UNIVERSITY OF SOUTH FLORIDA, priority 2015, published 2018).
# What was measured:
# [1] = system: VSMCs; assay: Whole genome microarray analysis (Illumina HumanHT-12 v4) of cultured VSMCs treated with progestins; type: cell-based, human; conditions: VSMCs treated by MPA
# Source text: Cultured VSMCs (n=3) treated with control medium or medium containing medroxyprogesterone acetate (MPA, 10^−7 M), or etonogestrel (ETO, 10^−7 M) were processed for whole genome analyses using Illumina Human microarray kit. After qRT-PCR confirmation of several up and down regulated genes from microarray data, Ingenuity Pathway Analysis (IPA) determined relevant upstream signaling of LAPC altered gene expression. To investigate the role of genes and relevant signaling molecules identified by IPA, VSMCs (n=3) treated with MPA or ETO±1 or 10 ng/ml recombinant CCL2 (rCCL2)±STAT1 inhibitor, 5′-methyl-thioadenosine (MTA, 100 μM) were analyzed by BrdU incorporation proliferation, TUNEL based ELISA apoptosis and Transwell insert migration assays.
# VSMCs were thawed and cultured in medium 231 (M231; Life Technologies) with smooth muscle growth supplement (5% FBS; 2 ng/mL human basic fibroblast growth factor, 0.5 ng/mL human epidermal growth factor, 5 ng/mL heparin, 0.2 μg/mL insulin and 5 μg/mL BSA; Life Technologies) with 100 U/mL penicillin, 100 μg/mL streptomycin, 0.25 μg/mL fungizone. Confluent VSMCs were washed twice with 1×PBS to remove residual serum, passaged in 96-well or 6-well plates and incubated in parallel in M231 with 1% charcoal striped FBS with 0.1% ethanol (vehicle, control) or 10^−7 M MPA (Sigma-Aldrich) or 10^−7 M ETO (Organon) or 10^−7 M P4 (Sigma-Aldrich) for 15 min, 6, 48, and 72 h. VSMCs were then washed with ice-cold PBS and stored at −80° C. for further RNA and protein analyses.
# Total RNA was isolated using Qiagen miRNeasy Mini Kit (Qiagen) and RNeasy MinElute Cleanup Kit (Qiagen). The quality of isolated RNAs was confirmed using an Agilent 2100 Bioanalyzer. Microarray analysis was limited to those specimens in which RNA Integrity Number exceeded 8. Microarray processes were performed in the Keck Biotechnology Resource Laboratory at Yale University (New Haven, Conn.) using Illumina Human HT-12 v4 BeadChip (Illumina). Raw data without normalization were analyzed by GeneSpring GX12.5 software (Agilent Technologies-Silicon Genetics). Normalization was performed as described (35). Genes with a fold-change >1.25 and a P value<0.05 were considered differentially expressed. Ingenuity Pathway Analysis (IPA) software (Qiagen) explored molecular and biological networks related to differentially expressed genes.
# [2] = system: VSMCs; assay: Transwell insert migration assay; type: cell-based, human; conditions: 12-h incubation, 10^−7 M; control 48.4%
# Protocol: VSMCs (75,000 cells/200 μL) were suspended in M231 containing 1% charcoal striped FBS and either 0.1% ethanol (vehicle control) or the corresponding steroids and seeded onto insert wells (transwell filter with 12-μm pores; EMD Millipore). The inserts were then placed in 24-well plates containing 500 μL M231 with 1% charcoal striped FBS. After 12 h, cells remaining on the upper surface of the filter were removed with a cotton swab. Migrated cells were trypsinized, centrifuged, and resuspended in 200 μL of M231 medium. The cell suspensions were mixed with 200 μL 10% ethanol containing 0.4% Trypan blue dye and the live cell number was counted by Countess Automated Cell Counter (Invitrogen). See further details in SI Materials and Methods.
# Cultured VSMCs were grown in T-75 cell culture flasks in M231 (Life Technologies) with smooth muscle growth supplement (Life Technologies) with 100 U/mL penicillin, 100 μg/mL streptomycin, 0.25 μg/mL fungizone. Confluent VSMCs were washed twice with 1×PBS to remove residual serum, and then trypsinized, resuspended (75,000 cells per 200 μL per well) in M231 with 1% charcoal striped FBS with 0.1% ethanol (vehicle, control), 10^−7 M MPA (Sigma-Aldrich), 10^−7 M ETO (Organon), or 10^−7 M P4 (Sigma-Aldrich)±rCCL2 (R&D Systems) and seeded on insert wells (transwell filter with 12-μm pores; EMD Millipore), which were then placed in 24-well plates containing 500 μL M231 with 1% charcoal striped FBS. After 12 h, cells remaining on the upper surface of the filter were removed with a cotton swab. Migrated cells attached to the lower surface of each insert or to the surface of lower wells were collected by trypsinization, followed by centrifugation and resuspension in 200 μL of M231 medium. The cell suspensions were mixed with 200 μL 10% ethanol containing 0.4% Trypan blue dye (selectively stains only dead cells blue, whereas live cells with intact cell membranes remain unstained) for 5 min. A mixture of 100 μL M231 and 100 μL 10% ethanol containing 0.4% Trypan blue dye was used as a negative control. To detect live cell numbers, 10 μL of final cell/Trypan blue dye suspension from each treatment condition was pipetted into Countess Cell Counting Chamber Slide and counted by using Countess Automated Cell Counter (Invitrogen). The counting procedure was performed in duplicate.
smiles,measurement,setting,value
"CC(=O)O[C@]1(C(C)=O)CC[C@H]2[C@@H]3C[C@H](C)C4=CC(=O)CC[C@]4(C)[C@H]3CC[C@@]21C [MPA, medroxyprogesterone acetate]","Fold-change, ABI gene family, member 3 (NESH) binding protein (ABI3BP)",[1],−2.045
same,"Fold-change, Actin, γ 2, smooth muscle, enteric (ACTG2)",[1],2.761
same,"Fold-change, Alcohol dehydrogenase 1A (class I), α polypeptide (ADH1A)",[1],2.49
same,"Fold-change, Bradykinin receptor B1 (BDKRB1)",[1],−2.041
same,"Fold-change, Chemokine (C-C motif) ligand 2 (CCL2)",[1],−4.123
same,"Fold-change, Collectin subfamily member 12 (COLEC12)",[1],−2.177
same,"Fold-change, Complement factor B (CFB)",[1],−3.17
same,"Fold-change, Complement factor D (adipsin) (CFD)",[1],2.794
same,"Fold-change, Cysteine-rich secretory protein LCCL domain containing 2, (CRISPLD2)",[1],3.721
same,"Fold-change, DNA-damage regulated autophagy modulator 1 (DRAM1)",[1],−2.149
same,"Fold-change, Decorin, transcript variant A2 (DiCN)",[1],2.515
same,"Fold-change, EF-hand domain family, member D1 (EFHD1)",[1],2.294
same,"Fold-change, Fibrillin 2 (FBN2)",[1],2.642
same,"Fold-change, Filaggrin (FLG)",[1],−2.306
same,"Fold-change, Glutathione peroxidase 3 (plasma) (GPX3)",[1],2.827
same,"Fold-change, H19, imprinted maternally expressed transcript noncoding RNA (H19)",[1],5.441
same,"Fold-change, Hypothetical protein FLJ40504 (FLJ40504)",[1],−2.331
same,"Fold-change, Indolethylamine N-methyltransferase (INMT)",[1],2.187
same,"Fold-change, Insulin-like growth factor binding protein 2, 36 kDa (IGFBP2)",[1],2.367
same,"Fold-change, Interleukin 1, β (IL1B)",[1],−2.325
same,"Fold-change, LY6/PLAUR domain containing 1, transcript variant 1 (LYPD1)",[1],−2.21
same,"Fold-change, Latexin (LXN)",[1],−2.939
same,"Fold-change, Leptin (obesity homolog, mouse) (LEP)",[1],4.042
same,"Fold-change, Matrix Gla protein, transcript variant 1 (MGP)",[1],3.615
same,"Fold-change, Matrix Gla protein, transcript variant 2 (MGP)",[1],3.221
same,"Fold-change, Natriuretic peptide precursor B (NPPB)",[1],−2.371
same,"Fold-change, PREDICTED: keratin 18 pseudogene 13 (KRT18P13)",[1],−2.209
same,"Fold-change, PREDICTED: similar to LYPDC1 protein (LOC100134073)",[1],−2.401
same,"Fold-change, Pleckstrin homology-like domain, family A, member 1 (PHLDA1)",[1],−2.17
same,"Fold-change, Potassium voltage-gated channel, shaker-related subfamily, 0 member 1, transcript variant2 (KCNAB1)",[1],−2.055
same,"Fold-change, Prostaglandin-endoperoxide synthase 1, transcript variant 2 (PTGS1)",[1],2.437
same,"Fold-change, Retinoic acid receptor responder (tazarotene induced) 1, transcript variant 1, (RARRES1)",[1],−4.061
same,"Fold-change, Retinoic acid receptor responder (tazarotene induced) 1, transcript variant 2, (RARRES1)",[1],−2.994
same,"Fold-change, Superoxide dismutase 2, mitochondrial, transcript variant 2, (SOD2)",[1],−2.208
same,"Fold-change, Sushi domain containing 2 (SUSD2)",[1],2.901
same,"Fold-change, Transmembrane protein 119 (TMEM119)",[1],2.258
same,"Fold-change, UDP-N-acetyl-alpha-D-galactosamine:polypeptide N-acetylgalactosaminyltransferase 12 (GALNT12)",[1],−2
same,"Fold-change, Wingless-type MMTV integration site family, member 5A (WNT5A)",[1],2.218
same,"Fold-change, Collagen, type VIII, α 1, transcript variant 2 (COL8A1)",[1]; table entry 11,2.628
same,"Fold-change, Collagen, type VIII, alpha 1, transcript variant 2 (COL8A1)",[1]; table entry 14,2.439
same,migration rate,[2],18.7%
